Results published in PubChem BioAssay (NCI).
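Test compounds were applied to cells in 96-well plates for 48 hours at 5 doses. TGI: concentration producing complete growth inhibition.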

Columns and labels:
Assay in all cases: NCI anticancer screen, dose series, 48 h
[1] = tested on: 786-0 renal
[2] = tested on: A498 renal
[3] = tested on: A549 NSCLC
[4] = tested on: BT-549 breast
[5] = tested on: CAKI-1 renal
[6] = tested on: CCRF-CEM leukemia
[7] = tested on: COLO 205 colon
[8] = tested on: DU-145 prostate
[9] = tested on: EKVX NSCLC
[10] = tested on: HCC-2998 colon
[11] = tested on: HCT-116 colon
[12] = tested on: HCT-15 colon
[13] = tested on: HL-60(TB) leukemia
[14] = tested on: HOP-62 NSCLC
[15] = tested on: HOP-92 NSCLC
[16] = tested on: HT29 colon
[17] = tested on: IGROV1 ovarian
[18] = tested on: K-562 leukemia
[19] = tested on: KM12 colon
[20] = tested on: LOX IMVI melanoma
[21] = tested on: M14 melanoma
[22] = tested on: MALME-3M melanoma
[23] = tested on: MCF7 breast
[24] = tested on: MDA-MB-231 breast
[25] = tested on: MDA-MB-435
[26] = tested on: MDA-N
[27] = tested on: MOLT-4 leukemia
[28] = tested on: NCI-H226 lung
[29] = tested on: NCI-H23 lung
[30] = tested on: NCI/ADR-RES ovarian
[31] = tested on: OVCAR-3 ovarian
[32] = tested on: OVCAR-4 ovarian
[33] = tested on: OVCAR-5 ovarian
[34] = tested on: OVCAR-8 ovarian
[35] = tested on: PC-3 prostate
[36] = tested on: RPMI-8226 leukemia
[37] = tested on: RXF 393 renal
[38] = tested on: SF-268 CNS
[39] = tested on: SF-295 CNS
[40] = tested on: SF-539 CNS
[41] = tested on: SK-MEL-2 melanoma
[42] = tested on: SK-MEL-28 melanoma
[43] = tested on: SK-MEL-5 melanoma
[44] = tested on: SK-OV-3 ovarian
[45] = tested on: SN12C renal
[46] = tested on: SNB-75 CNS
[47] = tested on: SR leukemia
[48] = tested on: SW-620 colon
[49] = tested on: T-47D breast
[50] = tested on: TK-10 renal
[51] = tested on: U251 CNS
[52] = tested on: UACC-257 melanoma
[53] = tested on: UACC-62 melanoma
[54] = tested on: ACHN renal
[55] = tested on: HS 578T breast
[56] = tested on: NCI-H460 lung
[57] = tested on: SNB-19 CNS
[58] = tested on: UO-31 renal
[59] = tested on: NCI-H522 lung

CC1CCCc2c(CC3CC(=O)NC(=O)C3)nc(N)nc21 (stereo unspecified)
TGI [1]: > 100 µM
TGI [2]: > 100 µM
TGI [3]: > 100 µM
TGI [4]: > 100 µM
TGI [5]: > 100 µM
TGI [6]: > 100 µM
TGI [7]: > 100 µM
TGI [8]: > 100 µM
TGI [9]: > 100 µM
TGI [10]: > 100 µM
TGI [11]: > 100 µM
TGI [12]: > 100 µM
TGI [13]: > 100 µM
TGI [14]: > 100 µM
TGI [15]: > 100 µM
TGI [16]: > 100 µM
TGI [17]: > 100 µM
TGI [18]: > 100 µM
TGI [19]: > 100 µM
TGI [20]: > 100 µM
TGI [21]: > 100 µM
TGI [22]: > 100 µM
TGI [23]: > 100 µM
TGI [24]: > 100 µM
TGI [25]: > 100 µM
TGI [26]: > 100 µM
TGI [27]: > 100 µM
TGI [28]: > 100 µM
TGI [29]: > 100 µM
TGI [30]: > 100 µM
TGI [31]: > 100 µM
TGI [32]: > 100 µM
TGI [33]: > 100 µM
TGI [34]: > 100 µM
TGI [35]: > 100 µM
TGI [36]: > 100 µM
TGI [37]: > 100 µM
TGI [38]: > 100 µM
TGI [39]: > 100 µM
TGI [40]: > 100 µM
TGI [41]: > 100 µM
TGI [42]: > 100 µM
TGI [43]: > 100 µM
TGI [44]: > 100 µM
TGI [45]: > 100 µM
TGI [46]: > 100 µM
TGI [47]: > 100 µM
TGI [48]: > 100 µM
TGI [49]: > 100 µM
TGI [50]: > 100 µM
TGI [51]: > 100 µM
TGI [52]: > 100 µM
TGI [53]: > 100 µM

COc1cc(OC)cc(-c2nc3ccccc3c(=O)[nH]2)c1
TGI [1]: 66.2 µM
TGI [2]: 82.2 µM
TGI [3]: > 100 µM
TGI [54]: > 100 µM
TGI [4]: > 100 µM
TGI [5]: > 100 µM
TGI [6]: > 100 µM
TGI [7]: > 100 µM
TGI [8]: > 100 µM
TGI [9]: > 100 µM
TGI [10]: > 100 µM
TGI [11]: > 100 µM
TGI [12]: > 100 µM
TGI [13]: > 100 µM
TGI [14]: > 100 µM
TGI [15]: > 100 µM
TGI [55]: > 100 µM
TGI [16]: > 100 µM
TGI [17]: > 100 µM
TGI [18]: > 100 µM
TGI [19]: > 100 µM
TGI [20]: > 100 µM
TGI [21]: > 100 µM
TGI [22]: > 100 µM
TGI [24]: > 100 µM
TGI [25]: > 100 µM
TGI [26]: > 100 µM
TGI [27]: > 100 µM
TGI [28]: > 100 µM
TGI [29]: > 100 µM
TGI [56]: > 100 µM
TGI [30]: > 100 µM
TGI [31]: > 100 µM
TGI [32]: > 100 µM
TGI [33]: > 100 µM
TGI [34]: 63.8 µM
TGI [35]: > 100 µM
TGI [36]: > 100 µM
TGI [37]: > 100 µM
TGI [38]: > 100 µM
TGI [39]: > 100 µM
TGI [41]: > 100 µM
TGI [42]: > 100 µM
TGI [43]: > 100 µM
TGI [44]: 62.8 µM
TGI [45]: > 100 µM
TGI [57]: > 100 µM
TGI [46]: 58.3 µM
TGI [48]: > 100 µM
TGI [49]: > 100 µM
TGI [50]: > 100 µM
TGI [51]: > 100 µM
TGI [52]: > 100 µM
TGI [53]: > 100 µM
TGI [58]: > 100 µM

Cc1cnc2[nH]c(-c3sccc3C)cc(=O)c2c1
TGI [1]: > 100 µM
TGI [2]: > 100 µM
TGI [3]: > 100 µM
TGI [54]: > 100 µM
TGI [4]: > 100 µM
TGI [5]: > 100 µM
TGI [6]: > 100 µM
TGI [7]: > 25.5 µM
TGI [8]: > 100 µM
TGI [9]: > 100 µM
TGI [10]: 96.8 µM
TGI [11]: > 100 µM
TGI [12]: > 100 µM
TGI [14]: > 100 µM
TGI [15]: > 100 µM
TGI [55]: 6.01 µM
TGI [16]: 10.3 µM
TGI [17]: > 100 µM
TGI [18]: > 100 µM
TGI [19]: > 51.3 µM
TGI [20]: > 100 µM
TGI [21]: > 33.4 µM
TGI [22]: > 100 µM
TGI [23]: > 100 µM
TGI [24]: > 100 µM
TGI [26]: 2.96 µM
TGI [27]: > 84.5 µM
TGI [28]: 39.3 µM
TGI [29]: > 100 µM
TGI [56]: > 100 µM
TGI [59]: 4.49 µM
TGI [30]: > 100 µM
TGI [31]: > 100 µM
TGI [32]: > 100 µM
TGI [33]: > 100 µM
TGI [34]: > 100 µM
TGI [35]: > 100 µM
TGI [36]: > 100 µM
TGI [37]: > 28.4 µM
TGI [38]: > 100 µM
TGI [39]: > 100 µM
TGI [40]: > 91.6 µM
TGI [41]: > 100 µM
TGI [42]: > 100 µM
TGI [43]: 21.7 µM
TGI [44]: > 100 µM
TGI [45]: > 100 µM
TGI [57]: > 40.8 µM
TGI [46]: > 100 µM
TGI [47]: > 100 µM
TGI [48]: > 100 µM
TGI [49]: > 100 µM
TGI [50]: > 100 µM
TGI [51]: > 100 µM
TGI [52]: > 100 µM
TGI [53]: > 54.3 µM
TGI [58]: > 100 µM

CCN(CC)CCC1(C(=O)OC)SCCc2ccc(C)cc21 (stereo unspecified)
TGI [1]: > 100 µM
TGI [2]: > 100 µM
TGI [3]: > 100 µM
TGI [54]: > 100 µM
TGI [4]: > 100 µM
TGI [5]: > 100 µM
TGI [6]: > 100 µM
TGI [7]: > 100 µM
TGI [8]: > 100 µM
TGI [9]: > 100 µM
TGI [10]: > 100 µM
TGI [11]: > 100 µM
TGI [12]: > 100 µM
TGI [14]: > 100 µM
TGI [15]: > 100 µM
TGI [55]: > 100 µM
TGI [17]: > 100 µM
TGI [18]: > 100 µM
TGI [19]: > 100 µM
TGI [20]: > 100 µM
TGI [21]: > 100 µM
TGI [22]: > 100 µM
TGI [23]: > 100 µM
TGI [25]: > 100 µM
TGI [26]: > 100 µM
TGI [27]: > 100 µM
TGI [28]: > 100 µM
TGI [29]: > 100 µM
TGI [56]: > 100 µM
TGI [59]: > 100 µM
TGI [30]: > 100 µM
TGI [31]: > 100 µM
TGI [32]: > 100 µM
TGI [33]: > 100 µM
TGI [34]: > 100 µM
TGI [35]: > 100 µM
TGI [36]: > 100 µM
TGI [37]: > 100 µM
TGI [38]: > 100 µM
TGI [39]: > 100 µM
TGI [40]: > 100 µM
TGI [41]: > 100 µM
TGI [42]: > 100 µM
TGI [43]: > 100 µM
TGI [44]: > 100 µM
TGI [45]: > 100 µM
TGI [57]: > 100 µM
TGI [46]: > 100 µM
TGI [47]: > 100 µM
TGI [48]: > 100 µM
TGI [49]: > 100 µM
TGI [50]: > 100 µM
TGI [51]: > 100 µM
TGI [52]: > 100 µM
TGI [53]: > 100 µM
TGI [58]: > 100 µM
